Test results from US7015306B2 (BioSynthema, Inc., priority 1999, dated 2006).
Where a SMILES comes first, the peptide text is derived from it. [ ]: non-standard residue; d: D form. The star is where a group is joined. ξ: configuration not given here. DTPA = O=C(O)CN(CCN(CC(=O)O)CC(=O)O)CCN(CC(=O)O)CC(=O)*; ξGly(4-Pip(1-amidino)) = N=C(N)N1CCC(C(N)C(=O)O)CC1; ξPhe(4-guanidino) = N=C(N)Nc1ccc(CC(N)C(=O)O)cc1; Pro(4-oxo) = O=C1CN[C@H](C(=O)O)C1; tBuAla = CC(C)(C)C[C@H](N)C(=O)O; Cha = N[C@@H](CC1CCCCC1)C(=O)O; Tle = CC(C)(C)[C@H](N)C(=O)O; Pip = O=C(O)[C@@H]1CCCCN1; dPip = O=C(O)[C@H]1CCCCN1

Tests used:
[1] = In vitro urine stability assay (HPLC) of In-111 labeled peptide; type: in vitro ADME; conditions: rat urine, 37EC, 4 hours
Method: (§1) All reagents were purchased from Sigma unless otherwise noted. The peptide and ^111InCl3 in 0.05 N HCl were incubated in a sodium acetate/ascorbic acid buffer for 30 minutes at room temperature. The reaction was diluted with 5% ethanol/95% PBS before using in subsequent in vitro assays.
(§2) Human serum was purchased from Sigma (H 1388). The labeled peptide was incubated in either human serum or rat urine at 37EC for the specified amount of time. An aliquot was filtered through a 0.45 μm syringe filter prior to HPLC injection.

[2] = target: neurotensin receptors (Homo sapiens, UniProt P30989); experiment: Competitive binding assay on frozen tissue sections of receptor-positive human tumors vs radioiodinated native neurotensin; conditions: for IC50: C-terminus modified derivatives
neurotensin receptors, sequence (P30989 whole entry): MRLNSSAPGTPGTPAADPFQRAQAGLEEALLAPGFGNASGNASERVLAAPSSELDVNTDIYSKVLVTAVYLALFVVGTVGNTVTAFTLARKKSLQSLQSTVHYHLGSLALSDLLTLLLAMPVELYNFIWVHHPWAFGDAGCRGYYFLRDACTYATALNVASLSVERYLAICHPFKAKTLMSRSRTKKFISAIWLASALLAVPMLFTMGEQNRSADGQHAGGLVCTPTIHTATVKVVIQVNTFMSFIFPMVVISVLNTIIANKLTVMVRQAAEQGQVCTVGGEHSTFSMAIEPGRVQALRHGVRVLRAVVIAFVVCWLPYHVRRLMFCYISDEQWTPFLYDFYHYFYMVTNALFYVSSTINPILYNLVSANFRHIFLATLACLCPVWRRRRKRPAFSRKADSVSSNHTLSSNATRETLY
Text: Frozen tissue sections from receptor-positive human tumors were used in a competitive binding assay.

[3] = In vitro serum stability assay (HPLC) of In-111 labeled peptide; type: in vitro ADME, human; conditions: human serum, 37EC, 4 hours
Method: as §1, §2

Structure (SMILES) | % of peptide at 4 hours after incubation at 37EC, Urine [1] | Kd ([2]; Table 3) | % of peptide at 4 hours after incubation at 37EC, Serum [3] | % of compound present at 4 hours in urine [1] | Kd ([2]; Table 1) | % of compound present at 4 hours in serum [3] | IC50 [2]
CC(C)(C)[C@H](NC(=O)[C@H](Cc1ccc(O)cc1)NC(=O)[C@@H]1CCCN1C(=O)[C@H](CCCNC(=N)N)NC(=O)C(NC(=O)[C@@H]1CCCN1C(=O)[C@H](CCCCN)NC(=O)[C@H](CC(N)=O)NC(=O)[C@H](CCC(=O)O)NC(=O)[C@@H](Cc1ccc(O)cc1)NC(=O)CN(CCN(CCN(CC(=O)O)CC(=O)O)CC(=O)O)CC(=O)O)C1CCN(C(=N)N)CC1)C(=O)N[C@@H](CC1CCCCC1)C(=O)O (stereo partly drawn) [Compound XIV, DTPA-DTyr-Glu-Asn-Lys-Pro-Gly(PipAm)-Arg-Pro-Tyr-tBuGly-Cha-OH] ({DTPA}-[dY]ENKP[ξGly(4-Pip(1-amidino))]RPY[Tle][Cha]-OH) | 81.8% | 4.5 nM | 93.9% | – | – | – | –
CC[C@H](C)[C@H](NC(=O)[C@H](Cc1ccc(O)cc1)NC(=O)[C@@H]1CCCN1C(=O)[C@H](CCCNC(=N)N)NC(=O)C(Cc1ccc(NC(=N)N)cc1)NC(=O)[C@@H]1CCCN1C(=O)[C@@H](CCCCN)NC(=O)CN(CCN(CCN(CC(=O)O)CC(=O)O)CC(=O)O)CC(=O)O)C(=O)N[C@@H](CC(C)C)C(=O)O (stereo partly drawn) [Compound I, DTPA-DLys-Pro-(4-Gu)Phe-Arg-Pro-Tyr-Ile-Leu-OH] | 1.5% | – | 14.1% | 1.5% | 8.6 nM | 14.1% | –
CC(C)C[C@H](NC(=O)[C@@H](NC(=O)[C@H](Cc1ccc(O)cc1)NC(=O)[C@H]1CCCCN1C(=O)[C@H](CCCNC(=N)N)NC(=O)C(NC(=O)[C@@H]1CCCN1C(=O)[C@@H](CCCCN)NC(=O)CN(CCN(CCN(CC(=O)O)CC(=O)O)CC(=O)O)CC(=O)O)C1CCN(C(=N)N)CC1)C(C)(C)C)C(=O)O (stereo partly drawn) [DTPA-DLys-Pro-Gly(PipAm)-Arg-DPipCA-Tyr-tBuGly-Leu-OH] ({DTPA}-[dK]P[ξGly(4-Pip(1-amidino))]R[dPip]Y[Tle]L-OH) | 91.9% | > 1000 nM | 96.2% | – | – | – | –
CC[C@H](C)[C@H](NC(=O)[C@H](Cc1ccc(O)cc1)NC(=O)[C@@H]1CCCN1C(=O)C(CCc1ccnc(N)n1)NC(=O)[C@H](CCCNC(=N)N)NC(=O)[C@@H]1CCCN1C(=O)[C@@H](CCCCN)NC(=O)CN(CCN(CCN(CC(=O)O)CC(=O)O)CC(=O)O)CC(=O)O)C(=O)N[C@@H](CC(C)C)C(=O)O (single isomer, unassigned) [DTPA-DLys-Pro-Arg-Aba(Apy)-Pro-Tyr-Ile-Leu-OH] | 4.7% | 1200 nM | 15.7% | – | – | – | –
CC(C)C[C@H](NC(=O)[C@@H](NC(=O)[C@H](Cc1ccc(O)cc1)NC(=O)[C@@H]1CC(=O)CN1C(=O)[C@H](CCCNC(=N)N)NC(=O)C(NC(=O)[C@@H]1CCCN1C(=O)[C@@H](CCCCN)NC(=O)CN(CCN(CCN(CC(=O)O)CC(=O)O)CC(=O)O)CC(=O)O)C1CCN(C(=N)N)CC1)C(C)(C)C)C(=O)O (stereo partly drawn) [DTPA-DLys-Pro-Gly(PipAm)-Arg-(4-oxo)Pro-Tyr-tBuGly-Leu-OH] ({DTPA}-[dK]P[ξGly(4-Pip(1-amidino))]R[Pro(4-oxo)]Y[Tle]L-OH) | 79.7% | > 1000 nM | 78.5% | – | – | – | –
CC(C)(C)C[C@H](NC(=O)[C@@H](NC(=O)[C@H](Cc1ccc(O)cc1)NC(=O)[C@@H]1CCCN1C(=O)[C@H](CCCNC(=N)N)NC(=O)C(NC(=O)[C@@H]1CCCN1C(=O)[C@H](CCCCN)NC(=O)[C@H](CC(N)=O)NC(=O)[C@H](CCC(=O)O)NC(=O)[C@@H](Cc1ccc(O)cc1)NC(=O)CN(CCN(CCN(CC(=O)O)CC(=O)O)CC(=O)O)CC(=O)O)C1CCN(C(=N)N)CC1)C(C)(C)C)C(=O)O (stereo partly drawn) [Compound XV, DTPA-DTyr-Glu-Asn-Lys-Pro-Gly(PipAm)-Arg-Pro-Tyr-tBuGly-tBuAla-OH] ({DTPA}-[dY]ENKP[ξGly(4-Pip(1-amidino))]RPY[Tle][tBuAla]-OH) | 89.8% | 3.5 nM | 98.9% | – | – | – | –
CC[C@H](C)[C@H](NC(=O)[C@H](Cc1ccc(O)cc1)NC(=O)[C@@H]1CCCN1C(=O)[C@H](CCCNC(=N)N)NC(=O)C(CCc1ccnc(N)n1)NC(=O)[C@@H]1CCCN1C(=O)[C@@H](CCCCN)NC(=O)CN(CCN(CCN(CC(=O)O)CC(=O)O)CC(=O)O)CC(=O)O)C(=O)N[C@@H](CC(C)C)C(=O)O (single isomer, unassigned) [Compound III, DTPA-DLys-Pro-Aba(Apy)-Arg-Pro-Tyr-Ile-Leu-OH] | 6.0% | – | 4.3% | 6.0% | 68 nM | 4.3% | –
CC(C)C[C@H](NC(=O)[C@@H](NC(=O)[C@H](Cc1ccc(O)cc1)NC(=O)[C@@H]1CCCN1C(=O)[C@H](CCCNC(=N)N)NC(=O)C(Cc1ccc(NC(=N)N)cc1)NC(=O)[C@@H]1CCCN1C(=O)[C@@H](CCCCN)NC(=O)CN(CCN(CCN(CC(=O)O)CC(=O)O)CC(=O)O)CC(=O)O)C(C)(C)C)C(=O)O (stereo partly drawn) [Compound IX, DTPA-DLys-Pro-Phe(4-guanyl)-Arg-Pro-Tyr-tBuGly-Leu-OH] ({DTPA}-[dK]P[ξPhe(4-guanidino)]RPY[Tle]L-OH) | 51.1% | 12.5 nM | 72.0% | – | – | – | 12.5 nM
CC(C)C[C@H](NC(=O)[C@@H](NC(=O)[C@H](Cc1ccc(O)cc1)NC(=O)[C@@H]1CCCN1C(=O)[C@H](CCCNC(=N)N)NC(=O)C(NC(=O)[C@@H]1CCCN1C(=O)[C@H](CCCCN)NC(=O)[C@H](CC(N)=O)NC(=O)[C@H](CCC(=O)O)NC(=O)[C@@H](Cc1ccc(O)cc1)NC(=O)CN(CCN(CCN(CC(=O)O)CC(=O)O)CC(=O)O)CC(=O)O)C1CCN(C(=N)N)CC1)C(C)(C)C)C(=O)O (stereo partly drawn) [Compound XIII, DTPA-DTyr-Glu-Asn-Lys-Pro-Gly(PipAm)-Arg-Pro-Tyr-tBuGly-Leu-OH] ({DTPA}-[dY]ENKP[ξGly(4-Pip(1-amidino))]RPY[Tle]L-OH) | 86.8% | 4.5 nM | 94.9% | – | – | – | –
CC(C)C[C@H](NC(=O)[C@@H](NC(=O)[C@H](Cc1ccc(O)cc1)NC(=O)[C@@H]1CCCCN1C(=O)[C@H](CCCNC(=N)N)NC(=O)C(NC(=O)[C@@H]1CCCN1C(=O)[C@@H](CCCCN)NC(=O)CN(CCN(CCN(CC(=O)O)CC(=O)O)CC(=O)O)CC(=O)O)C1CCN(C(=N)N)CC1)C(C)(C)C)C(=O)O (stereo partly drawn) [DTPA-DLys-Pro-Gly(PipAm)-Arg-PipCA-Tyr-tBuGly-Leu-OH] ({DTPA}-[dK]P[ξGly(4-Pip(1-amidino))]R[Pip]Y[Tle]L-OH) | 45.8% | > 1000 nM | 69.5% | – | – | – | –
CC(C)C[C@H](NC(=O)[C@@H](NC(=O)[C@H](Cc1ccc(O)cc1)NC(=O)[C@@H]1CCCN1C(=O)[C@H](CCCNC(=N)N)NC(=O)C(NC(=O)[C@@H]1CCCN1C(=O)[C@@H](CCCCN)NC(=O)CN(CCN(CCN(CC(=O)O)CC(=O)O)CC(=O)O)CC(=O)O)C1CCN(C(=N)N)CC1)C(C)(C)C)C(=O)O (single isomer, unassigned) [Compound X, DTPA-DLys-Pro-Gly(PipAm)-Arg-Pro-Tyr-tBuGly-Leu-OH] | 63.0% | 3.5 nM | 87.5% | – | – | – | 3.5 nM
